{"source": "paper PMC7708037", "about": "“Targeting OGG1 arrests cancer cell proliferation by inducing replication stress” (Nucleic Acids Research, 2020)", "key": {"A3 cells": {"test_system": "A3 cells", "assay": "Annexin V-staining (apoptosis)", "type": "cell-based, human", "details": "72 h", "procedure": "The annexin V staining experiment was performed using BD Pharmingen FITC Annexin V Apoptosis Detection Kit I (cat.no 556547) according to the protocol given in the kit. Cells were washed with ice-cold PBS and then washed with 1X Annexin buffer diluted in ice-cold PBS. To the washed pellet of cells, PI and FITC Annexin V dye was added and incubated at room temperature in dark for 15 mins. After the incubation, 400 µl of annexin buffer was added and run in Navios flow cytometer (Beckman Coulter) to detect the apoptosis with blue laser(488 nm, filter 525/40 nm) and dead cells with blue laser(488 nm, filter 620/30 nm). Kaluza Flow Analysis (Beckman Coulter) was used for data analysis.\nFigure 4. Anticancer properties overlap between OGG1 loss and OGG1 inhibitors. (A) Viability of T-cell acute […] leukemia cell lines treated for 5 days with the indicated doses TH5487. Data are average ±SD of independent experiments (A3, n = 5; Jurkat, n = 3; MOLT-4, n = 4; CCRF-CEM, n = 3). (B) Relative cell numbers and (C) viability (%) for A3 cells treated for 5 days with 10 μM TH5487. Data are average ±SD of six replicates from three independent experiments. […] Statistical significance was determined using unpaired, two-sided t-tests (*P < 0.05, **P < 0.01, ***P < 0.001, ****P < 0.0001, ns, non-significant)."}, "[1]": {"test_system": "HEK293T and HEK293T(KO) cells", "assay": "Colony area of HEK293T vs HEK293T(KO)", "type": "cell-based, human", "details": "8 days exposure", "text": "250 HEK293T or HEK293T (KO) cells were counted and seeded in 6-well plates for 8 days in the presence or absence of TH5487 at indicated concentrations. Colonies were directly scanned after removing media and drying colonies. Area of HEK293T or HEK293T(KO) colonies was digitally colour contrasted and then analysed using ImageJ. […]\nuntreated parental HEK293T. Data are average ±SEM of 4 technical replicates from 2 independent experiments. F. Comparative analysis of the colony area (pixels) for HEK293T or HEK293T(KO) cells exposed for eight days to TH5487 or DMSO. Data are average ±SEM of 4 technical replicates from 2 independent experiments. Statistical significance was determined using Mann Witney test (**, P<0.01, ***, P<0.001 and ****, P<0.0001 , ns, non-significant).\nSupplementary Fig. S6: 8 -oxodG levels and cell cycle distribution. A. 8-oxodG accumulation in A3 knockdown cells. The indicated shNT cells were treated with 250 ng/ml doxycycline for 0, 96, or 144 h, and the amount of genomic 8-oxodG was quantified with LC -MS/MS. […] Cells were treated with 10 µM TH5487 or an equivalent volume DMSO for the indicated times, and the cell cycle distribution was determined by flow cytometry. […] A3 shNT (grey), sh2 (blue), and sh3 (red), were treated with 250 ng/ml doxycycline for 48 –120 h, and the cell cycle distribution was determined with flow cytometry. […]"}, "[2]": {"test_system": "peripheral blood mononuclear cells (PBMCs)", "assay": "PBMC proliferation / tolerance", "type": "cell-based", "procedure": "Peripheral blood mononuclear Cells (PBMC) were isolated from peripheral whole blood from controls using Histopaque®-1077 (Sigma-Aldrich, San Luis, MO, USA) following the manufacturer's instructions. Briefly, peripheral blood was collected in heparin and diluted with equal amount of PBS. Next, blood was centrifuged with Histopaque®-1077 at 400 × g for 30 min at room temperature and the PBMC layer was recovered. All steps were processed within 4 h after blood extraction.\nPMBCs and CD34- fraction (CB) were cultured in the presence of PHA-L (Sigma-Aldrich, ref: 11249738001) or Dynabeads® Human T-Activator CD3/CD28 (Thermofisher scientific, ref: 11131D) for the activation and expansion of human T cells according to the manufacturer's instructions. […]\nexperiments (Supplementary Table S1).\nPBMCs from two donors were activated using Dynabeads and exposed to 10 µM TH5487 during 72 h […]\nto follow cell numbers. […] CD3+ T-cells were activated with Dynabeads and treated with DMSO or TH5487 for 6 days, or 25 µM camptothecin for 24 h as a technical control. Survival was assessed by flow cytometry. Data are three technical replicates from one donor, representative of four individuals. Paired, two-sided T-tests were used to assess significance (ns, non-significant, ****, P<0.0001). I. to K. Gating strategy for identification of dead cells. CD3+ cells were stained with Annexin V and Sytox Blue. […]"}}}
{"smiles": "O=C(Nc1ccc(I)cc1)N1CCC(n2c(=O)[nH]c3c(Br)cccc32)CC1", "note": "[TH5487]", "values": [{"measurement": "Apoptosis (Annexin V-propidium iodide)", "setting": "A3 cells; 20 μM", "value": "more substantial"}, {"measurement": "Apoptosis (Annexin V-propidium iodide)", "setting": "A3 cells; 5 and 10 μM", "value": "slight but significant increase in apoptosis"}, {"measurement": "Colony area, HEK293T compared to HEK293T (KO)", "setting": "[1]", "value": "significantly reduced"}, {"measurement": "Tolerance by resting and activated PBMCs", "setting": "[2]; 10 μM, healthy donors", "value": "well tolerated"}, {"measurement": "Proliferation of activated PBMCs", "setting": "[2]; Dynabeads-activated PBMCs from two donors, 10 µM, 72 h", "value": "does not affect proliferation"}]}
